Among the data in patent US9963496B2, “Stable glucagon analogues and use for treatment of hypoglycaemia” (Novo Nordisk A/S, priority 2014, dated 2018) are IC50, recovery and EC50 values, retold here.

Molecules are shown by their SMILES. *1 amine or outer side, *2 acyl side, *3 side chain or, on linkers, in order; H or OH if unused. Where a SMILES comes first, the peptide text is derived from it. Side-chain parts run from the residue outwards. The star is where a group is joined. γGlu = O=C(O)[C@H](CCC(=O)[*:2])N[*:1]; Desaminohistidyl = O=C(CCc1c[nH]cn1)*

Data set [1] concerns the target T1, human glucagon receptor (Homo sapiens, UniProt P47871).
T1 construct: expressed in transfected cells; host or cells: BHK cells, clone BHK hGCGR A3*25; isolated membranes
Nature of the data set: Assay (II)(b): glucagon receptor binding, 125I-glucagon displacement on isolated membranes (SPA). Particulars: displacement of 125I-glucagon, membranes of BHK cells with human glucagon receptor, 2 h at 25° C.; read-out: IC50 hGlucagonR. How it is done: (b) Glucagon Receptor Binding
The purpose of this assay was to test the in vitro receptor binding activity of the glucagon derivatives of the invention. The receptor binding activity is a measure of affinity of a derivative for the human glucagon receptor.
The receptor binding of each compound to the human glucagon receptor was measured in a displacement binding assay. In this type of assay a labelled ligand (in this case 125I-glucagon) is bound to the receptor. Each derivative is added in a series of concentrations to isolated membranes containing the human glucagon receptor and displacement of the labelled ligand is monitored. The receptor binding is reported as the concentration at which half of the labelled ligand is displaced from the receptor, the IC50 value.
HME buffer consisted of 25 mM HEPES, 2 mM MgCl2 and 1 mM EDTA, and pH was adjusted to 7.4. Binding buffer consisted of 50 mM HEPES supplemented with 5 mM MgCl2, 1 mM CaCl2, 0.02% Tween 20 and 0.1% Ovalbumin, and pH was adjusted to 7.4.
The cells used in this assay (clone BHK hGCGR A3*25) were BHK cells stable transfected with an expression plasmid containing the cDNA encoding the human glucagon receptor.
The cells were grown at 5% CO2 in DMEM, 10% fetal calf serum, 1% Pen/Strep (Penicillin/Streptomycin) and 1.0 mg/mL of the selection marker G418. To make a membrane preparation the cells were grown to approximately 80% confluence. The cells were washed twice in phosphate-buffered saline and harvested. The cells were pelleted using a brief centrifugation and the cell pellet was kept on ice. The cells were lysed by adding approx. 5 mL HME buffer, mix by pipetting and snap freeze in liquid nitrogen. The cell lysate was quickly thawed and HME buffer added to 10 mL. The cell pellet was homogenised with an ULTRA-THURRAX dispersing instrument for 20-30 seconds. The homogenate was centrifuged at 20,000×G, 4° C. for 10 minutes. The pellet was resuspended (homogenised) in 1-2 mL HME buffer. The protein concentration was determined. The membranes were aliquoted and snap frozen in liquid nitrogen and stored at minus 80° C.
• 1. For the receptor binding assay 50 μl of the assay buffer was added to each well of an assay plate. • 2. Test compounds were serially diluted to give the following concentrations: 8×10 EE-7 M, 8×10 EE-8 M, 8×10 EE-9 M, 8×10 EE-10 M, 8×10 EE-11 M, 8×10 EE-12 M and 8×10 EE-13 M. Twenty-five μl were added to appropriate wells in the assay plate. • 3. Cell membrane aliquots were thawed and diluted to their working concentration. Fifty μl were added to each well in the assay plate. • 4. WGA SPA beads were suspended in assay buffer at 20 mg/mL. The suspension was diluted to 10 mg/mL in assay buffer just prior to addition to the assay plate. Fifty μl were added to each well in the assay plate. • 5. The incubation was started by adding 25 μl of 480 pM solution of [125I]-glucagon to each well of the assay plate. A 25 μl aliquot was reserved for measuring total counts/well. • 6. The assay plate was incubated for 2 h at 25° C. • 7. The assay plate was centrifuged for 10 min at 1500 rpm. • 8. The assay plate was read in a Packard TopCount NXT instrument. Calculations
The data from the TopCount instrument were transferred to GraphPad Prism software. The software averaged the values for the replicates and performed a non-linear regression.
A general note: Displacement assays read how much labelled ligand stays bound in the presence of the test substance.

A short description of the next data set: physchem. The conditions noted are these: pH 7.5. The format is physicochemical. In outline:
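Peptide at 250 μM in 10 mM HEPES pH 7.5 with 1 μM Thioflavin T, incubated at 37° C with 960 rpm orbital shaking. ThT fluorescence (ex 444/em 485 nm) read every 20 min; lag-time (t0−2τ) and kapp (1/τ) from curve fit. Recovery is post-assay supernatant peptide by RP-HPLC as % of initial.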

The target in data set [2] is T1, human glucagon receptor. Nature of the data set: Assay (I)(b): glucagon receptor activation, CRE luciferase reporter gene assay in BHK cells. The format is cell-based. The conditions noted are these: BHK cells expressing human glucagon receptor and CRE luciferase, 3 h incubation; read-out: EC50 hGlucagonR. The method, boiled down:
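BHK570 cells stably expressing the human glucagon receptor and CRE-luciferase, 5×10 EE3 cells/well in DMEM with 2% ovalbumin and 0.2% Pluronic F-68. Compounds at final 1×10 EE-6 to 1×10 EE-13 M, 3 h at 37° C. Luminescence read; EC50 by four-parameter fit.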

T1 sequence (P47871 26-477): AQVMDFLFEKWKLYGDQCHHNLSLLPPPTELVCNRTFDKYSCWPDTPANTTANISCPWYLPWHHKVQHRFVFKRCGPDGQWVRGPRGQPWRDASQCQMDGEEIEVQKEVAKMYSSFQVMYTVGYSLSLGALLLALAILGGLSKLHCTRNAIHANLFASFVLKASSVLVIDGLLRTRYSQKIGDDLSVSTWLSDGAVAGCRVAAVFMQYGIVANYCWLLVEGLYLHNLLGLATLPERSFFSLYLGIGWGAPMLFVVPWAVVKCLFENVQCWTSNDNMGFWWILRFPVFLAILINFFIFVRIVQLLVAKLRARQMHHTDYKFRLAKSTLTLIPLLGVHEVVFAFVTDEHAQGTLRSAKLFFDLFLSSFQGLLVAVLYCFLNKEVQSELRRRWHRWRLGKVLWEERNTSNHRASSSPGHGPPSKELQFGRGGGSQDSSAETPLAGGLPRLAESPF

For orientation: IC50 means the concentration that inhibits the measured activity by half. Take `CC(=O)N[C@@H](CCC(=O)N[C@@H](CCC(=O)N[C@@H](CCC(=O)N[C@@H](CCC(=O)NCCCC[C@H](NC(=O)[C@@H](NC(=O)[C@H](Cc1ccccc1)NC(=O)[C@H](CCC(=O)O)NC(=O)[C@H](CCC(N)=O)NC(=O)[C@H](C)NC(=O)[C@H](CCCNC(=N)N)NC(=O)[C@H](CCCNC(=N)N)NC(=O)[C@H](CO)NC(=O)[C@H](CCC(=O)O)NC(=O)[C@H](CC(C)C)NC(=O)[C@H](Cc1ccc(O)cc1)NC(=O)[C@H](CCCCN)NC(=O)[C@H](CO)NC(=O)[C@H](Cc1ccc(O)cc1)NC(=O)[C@H](CC(=O)O)NC(=O)[C@H](CO)NC(=O)[C@@H](NC(=O)[C@H](Cc1ccccc1)NC(=O)[C@@H](NC(=O)CNC(=O)[C@H](Cc1c[nH]cn1)NC(=O)[C@H](CO)NC(=O)CCc1c[nH]cn1)[C@@H](C)O)[C@@H](C)O)C(C)C)C(=O)N[C@@H](Cc1c[nH]c2ccccc12)C(=O)N[C@@H](CC(C)C)C(=O)N[C@@H](CC(C)C)C(=O)N[C@@H](CO)C(=O)N[C@H](C(=O)O)[C@@H](C)O)C(=O)O)C(=O)O)C(=O)O)C(=O)O` [Example 6, N^ϵ24-[(4S)-4-[[(4S)-4-[[(4S)-4-[[(4S)-4-acetamido-4-carboxybutanoyl]amino]-4-carboxybutanoyl]amino]-4-carboxybutanoyl]amino]-4-carboxybutanoyl]-[Imp1, His3, Glu15, Glu21, Lys24, Leu27, Ser28]-Glucagon] (Desaminohistidyl-SHGTFTSDYSKYLESRRAQEFVK([γGlu-γGlu-γGlu-γGlu-Ac])WLLST-OH): the IC50 at human glucagon receptor [1] turned out to be 1.8 nM. Further, the recovery at 250 μM in the data set “physchem” was 101%.
As to `CC(=O)N[C@@H](CCC(=O)N[C@@H](CCC(=O)N[C@@H](CCC(=O)N[C@@H](CCC(=O)NCCCC[C@H](NC(=O)[C@@H](NC(=O)[C@H](Cc1ccccc1)NC(=O)[C@H](CC(=O)O)NC(=O)[C@H](CCC(N)=O)NC(=O)[C@H](C)NC(=O)[C@H](CCCNC(=N)N)NC(=O)[C@H](CCCNC(=N)N)NC(=O)[C@H](CC(C)C)NC(=O)[C@H](CC(=O)O)NC(=O)[C@H](CC(C)C)NC(=O)[C@H](Cc1ccc(O)cc1)NC(=O)[C@H](CCCCN)NC(=O)[C@H](CO)NC(=O)[C@H](Cc1ccc(O)cc1)NC(=O)[C@H](CC(=O)O)NC(=O)[C@H](CO)NC(=O)[C@@H](NC(=O)[C@H](Cc1ccccc1)NC(=O)[C@@H](NC(=O)CNC(=O)[C@H](Cc1c[nH]cn1)NC(=O)[C@H](CO)NC(=O)CCc1c[nH]cn1)[C@@H](C)O)[C@@H](C)O)C(C)C)C(=O)N[C@@H](Cc1c[nH]c2ccccc12)C(=O)N[C@@H](CC(C)C)C(=O)N[C@@H](CC(C)C)C(=O)N[C@@H](CO)C(=O)N[C@H](C(=O)O)[C@@H](C)O)C(=O)O)C(=O)O)C(=O)O)C(=O)O` [Example 9, N^ϵ24-[(4S)-4-[[(4S)-4-[[(4S)-4-[[(4S)-4-acetamido-4-carboxybutanoyl]amino]-4-carboxybutanoyl]amino]-4-carboxybutanoyl]amino]-4-carboxybutanoyl]-[Imp1, His3, Leu16, Lys24, Leu27, Ser28]-Glucagon] (Desaminohistidyl-SHGTFTSDYSKYLDLRRAQDFVK([γGlu-γGlu-γGlu-γGlu-Ac])WLLST-OH), the IC50 on human glucagon receptor [1] turned out to be 0.5 nM. Moreover, the recovery at 250 μM in the data set “physchem” was 100%.
The term EC50 denotes the concentration needed to bring the measured effect to its halfway point. Consider `CC(=O)N[C@@H](CCC(=O)N[C@@H](CCC(=O)N[C@@H](CCC(=O)N[C@@H](CCC(=O)NCCCC[C@H](NC(=O)[C@@H](NC(=O)[C@H](Cc1ccccc1)NC(=O)[C@H](CC(=O)O)NC(=O)[C@H](CCC(N)=O)NC(=O)[C@H](C)NC(=O)[C@H](CCCNC(=N)N)NC(=O)[C@H](CCCNC(=N)N)NC(=O)[C@H](C)NC(=O)[C@H](CC(=O)O)NC(=O)[C@H](CC(C)C)NC(=O)[C@H](Cc1ccc(O)cc1)NC(=O)[C@H](CCCCN)NC(=O)[C@H](CO)NC(=O)[C@H](Cc1ccc(O)cc1)NC(=O)[C@H](CC(=O)O)NC(=O)[C@H](CO)NC(=O)[C@@H](NC(=O)[C@H](Cc1ccccc1)NC(=O)[C@@H](NC(=O)CNC(=O)[C@H](Cc1c[nH]cn1)NC(=O)[C@H](CO)NC(=O)CCc1c[nH]cn1)[C@@H](C)O)[C@@H](C)O)C(C)C)C(=O)N[C@@H](Cc1c[nH]c2ccccc12)C(=O)N[C@@H](CC(C)C)C(=O)N[C@@H](CC(C)C)C(=O)N[C@@H](CO)C(=O)N[C@H](C(=O)O)[C@@H](C)O)C(=O)O)C(=O)O)C(=O)O)C(=O)O` [Example 20, N^ϵ24-[(4S)-4-[[(4S)-4-[[(4S)-4-[[(4S)-4-acetamido-4-carboxybutanoyl]amino]-4-carboxybutanoyl]amino]-4-carboxybutanoyl]amino]-4-carboxybutanoyl]-[Imp1, His3, Ala16, Lys24, Leu27, Ser28]-Glucagon] (Desaminohistidyl-SHGTFTSDYSKYLDARRAQDFVK([γGlu-γGlu-γGlu-γGlu-Ac])WLLST-OH), for which the EC50 on human glucagon receptor [2] came to 0.004 nM. In “physchem”, this molecule registered a recovery at 250 μM of 105%.
